pIC50: −log10 of the molar value.

Consider twelve compounds from patent US6610710B2, “Phenylalanine derivatives” (Ajinomoto Co., Inc., priority 1999, dated 2003).

The assay deals with T1, integrin α4β7 (RPMI-8866 cells) binding with rat MAdCAM-1/human IgG1 chimera protein (Homo sapiens, UniProt P13612+P26010).
T1 construct: lymphoma cell strain RPMI-8866 of human B cells, known to express integrin α4β7; endogenous in cells; host or cells: RPMI-8866 (human B-cell lymphoma line)
T1 sequence (P13612 34-1032): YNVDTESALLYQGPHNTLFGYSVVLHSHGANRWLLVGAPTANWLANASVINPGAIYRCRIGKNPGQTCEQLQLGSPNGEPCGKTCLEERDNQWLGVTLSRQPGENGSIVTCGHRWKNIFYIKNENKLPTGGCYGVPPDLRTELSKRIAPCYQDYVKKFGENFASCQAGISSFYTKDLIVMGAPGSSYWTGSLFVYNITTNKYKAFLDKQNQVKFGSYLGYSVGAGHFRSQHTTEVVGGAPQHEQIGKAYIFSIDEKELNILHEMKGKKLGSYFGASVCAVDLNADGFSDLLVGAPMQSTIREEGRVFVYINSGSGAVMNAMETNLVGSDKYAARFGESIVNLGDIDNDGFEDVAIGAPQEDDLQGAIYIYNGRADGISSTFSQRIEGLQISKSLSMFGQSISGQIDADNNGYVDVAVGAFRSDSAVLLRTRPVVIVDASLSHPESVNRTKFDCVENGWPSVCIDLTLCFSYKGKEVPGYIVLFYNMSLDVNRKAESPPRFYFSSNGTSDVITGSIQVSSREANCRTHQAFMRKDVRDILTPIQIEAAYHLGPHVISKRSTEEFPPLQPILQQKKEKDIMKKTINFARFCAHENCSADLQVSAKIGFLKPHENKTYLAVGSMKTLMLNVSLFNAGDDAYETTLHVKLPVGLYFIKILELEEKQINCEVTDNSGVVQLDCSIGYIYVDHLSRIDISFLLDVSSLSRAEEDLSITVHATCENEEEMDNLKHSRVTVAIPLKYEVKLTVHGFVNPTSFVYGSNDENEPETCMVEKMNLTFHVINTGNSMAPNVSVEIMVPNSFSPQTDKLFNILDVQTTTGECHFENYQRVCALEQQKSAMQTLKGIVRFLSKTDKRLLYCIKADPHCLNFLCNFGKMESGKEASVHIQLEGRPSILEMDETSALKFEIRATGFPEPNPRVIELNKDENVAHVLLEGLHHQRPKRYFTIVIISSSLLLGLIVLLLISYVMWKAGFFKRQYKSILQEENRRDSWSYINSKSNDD
T1 sequence (P26010 20-798): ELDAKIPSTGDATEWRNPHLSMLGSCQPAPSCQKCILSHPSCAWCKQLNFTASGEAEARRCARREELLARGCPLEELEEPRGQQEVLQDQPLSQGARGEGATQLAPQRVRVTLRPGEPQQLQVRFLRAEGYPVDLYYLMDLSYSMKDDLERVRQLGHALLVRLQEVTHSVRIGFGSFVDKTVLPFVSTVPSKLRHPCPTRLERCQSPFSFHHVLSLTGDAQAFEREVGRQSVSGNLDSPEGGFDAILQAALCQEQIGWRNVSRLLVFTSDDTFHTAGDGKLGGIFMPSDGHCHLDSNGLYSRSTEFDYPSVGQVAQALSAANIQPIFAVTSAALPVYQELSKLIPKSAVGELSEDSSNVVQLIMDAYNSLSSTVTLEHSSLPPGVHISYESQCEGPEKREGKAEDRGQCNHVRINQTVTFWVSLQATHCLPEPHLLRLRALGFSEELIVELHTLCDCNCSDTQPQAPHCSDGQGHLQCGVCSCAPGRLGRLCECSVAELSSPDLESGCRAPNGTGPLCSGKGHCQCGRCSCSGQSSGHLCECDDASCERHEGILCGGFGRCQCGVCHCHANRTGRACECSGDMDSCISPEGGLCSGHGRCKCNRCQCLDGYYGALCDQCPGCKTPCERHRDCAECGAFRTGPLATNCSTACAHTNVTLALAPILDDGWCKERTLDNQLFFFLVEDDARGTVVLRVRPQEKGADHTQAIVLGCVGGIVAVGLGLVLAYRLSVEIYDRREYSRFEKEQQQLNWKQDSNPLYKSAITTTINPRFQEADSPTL
Nature of the assay: Rat MAdCAM-1 antagonistic activity (rat MAdCAM-1/α4β7 binding assay), RPMI-8866 cell adhesion. Conditions: 4 mM MnCl2, read-out: MadCAM/α 4 β 7 antagonistic activity to integrin (IC50). Format: cell-based. The procedure:
(Test Example) Rat MAdCAM-1 Antagonistic Activity (rat MAdCAM-1/α4β7 Binding Assay):
The capacity of a test substance antagonistic to the binding of lymphoma cell strain RPMI-8866 of human B cells, known to express integrin α4β7, with rat MAdCAM-1/human IgG1 chimera protein was determined.
100 μl/well of human IgG1 antibody (SIGMA #I-6260) diluted with buffer A to 1/1,000 concentration was added to a micro titer plate having 96 wells. After the incubation at 4° C. overnight, the plate was washed with PBS once. 100 μl/well of rat MAdCAM-1/human IgG1 chimera protein solution diluted with a buffer (buffer C)obtained by diluting Block Ace® (Dainippon Pharmaceutical Co., Ltd.) with PBS to 1/10 concentration was added in an amount of 100 μl/well. After the incubation at 37° C. for 2 hours, unbound MAdCAM-1/IgG was removed by washing once with PBS. After completion of the washing, 150 μl/well of buffer B was added and the incubation was continued at room temperature for 1 hour. Buffer B was removed and then the plate was washed with PBS once.
RPMI-8866 cells were incubated in DMEM containing 10 μg/ml of Calcein-AM at 37° C. for 30 minutes to label them with fluorescence. The cells were again suspended in a binding buffer containing 4 mM of MnCl2.
50 μl of a test substance of various concentrations obtained by the dilution with the binding buffer was added to the plate. Immediately thereafter, 50 μl (final volume: 100 μl/well) of the fluorescent RPMI-8866 cells (4×10^6 cells/ml ) were added thereto, and they were incubated at room temperature for 30 minutes. After the shaking on a plate shaker (IKA MTS-4) at 800 rpm for 30 seconds, the solution was immediately removed to remove the unbound cells. The fluorescence quantity of the bound cells remaining in the wells was determined with a fluorescent plate reader (Wallac 1420 ARVO multi-label counter). The fluorescent strength thus obtained is proportional to the number of RPMI-8866 cells bound to MAdCAM-1 and remaining on the plate. The binding rate of each test material in various concentrations was determined while the fluorescent strength of the test material-free well was determined to be 100%. The concentration IC50 for the 50% binding inhibition was calculated.
As for `O=C(O)[C@H](Cc1ccc(OCc2c(Cl)cccc2Cl)cc1)NC(=O)[C@H]1CC[C@H](C(=O)O)CC1` [Example 2, N-(Trans-4-carboxycyclohexane-1-carbonyl)-O-(2,6-dichlorobenzyl)-L-tyrosine], the pIC50 is at least 6.70.

As to `O=C(O)[C@H](Cc1ccc(OCc2c(Cl)cccc2Cl)cc1)NC(=O)[C@H]1CC[C@H](C(=O)NNc2ccccc2)CC1` [Example 3, N-(Trans-4-phenylhydrazinocarbonylcyclohexane-1-carbonyl)-O-(2,6-dichlorobenzyl)-L-tyrosine], the pIC50 was 6.00 to 6.70.

For `O=C(O)[C@H](Cc1ccc(OCc2c(Cl)cccc2Cl)cc1)NC(=O)[C@H]1CC[C@H](C(=O)NNc2ccc(Br)cc2)CC1` [Example 4, N-[Trans-4-(4-bromophenylhydrazinocarbonyl)cyclohexane-1-carbonyl]-O-(2,6-dichlorobenzyl)-L-tyrosine], the pIC50 was 6.00 to 6.70.

As for `O=C(O)[C@H](Cc1ccc(OCc2c(Cl)cccc2Cl)cc1)NC(=O)[C@H]1CC[C@H](C(=O)NCc2ccccc2)CC1` [Example 6], the pIC50 is 5.30 to 6.00.

Take `COc1ccc(NNC(=O)[C@H]2CC[C@H](C(=O)N[C@@H](Cc3ccc(OCc4c(Cl)cccc4Cl)cc3)C(=O)O)CC2)cc1` [Example 14]: the pIC50 was 6.00 to 6.70.

Turning to `Cc1ccc(NNC(=O)[C@H]2CC[C@H](C(=O)N[C@@H](Cc3ccc(OCc4c(Cl)cccc4Cl)cc3)C(=O)O)CC2)cc1` [Example 34], the pIC50 is 6.00 to 6.70.

Consider `O=C(O)[C@H](Cc1ccc(OCc2c(Cl)cccc2Cl)cc1)NC(=O)[C@H]1CC[C@H](C(=O)NNc2ccc(OC(F)(F)F)cc2)CC1` [Example 35], for which the pIC50 is 5.30 to 6.00.

`COc1cccc(NNC(=O)[C@H]2CC[C@H](C(=O)N[C@@H](Cc3ccc(OCc4c(Cl)cccc4Cl)cc3)C(=O)O)CC2)c1` [Example 44]: the pIC50 is 6.00 to 6.70.

For the compound `O=C(Nc1ccc(C[C@H](NC(=O)[C@H]2CC[C@H](C(=O)O)CC2)C(=O)O)cc1)c1snnc1-c1ccccc1` [Example 45, N-(Trans-4-carboxycyclohexane-1-carbonyl)-4-{[(4-phenyl-1,2,3-thiadiazole-5-yl)carbonyl]amino}-L-phenylalanine], the pIC50 is 5.30 to 6.00.

Consider `COc1ccc(NNC(=O)[C@H]2CC[C@H](C(=O)N[C@@H](Cc3ccc(NC(=O)c4snnc4-c4ccccc4)cc3)C(=O)O)CC2)cc1` [Example 46, N-[Trans-4-(4-methoxyphenylhydrazinocarbonyl)cyclohexane-1-carbonyl]-4-{[(4-phenyl-1,2,3-thiadiazole-5-yl)carbonyl]amino}-L-phenyl-alanine], for which the pIC50 is 5.30 to 6.00.

As for `COc1cccc(OC)c1-c1ccc(C[C@H](NC(=O)[C@H]2CC[C@H](C(=O)O)CC2)C(=O)O)cc1` [Example 50, N-(Trans-4-carboxycyclohexane-1-carbonyl)-4-(2,6-dimethoxyphenyl)-L-phenylalanine], the pIC50 was 5.30 to 6.00.

On to `COc1ccc(NNC(=O)[C@H]2CC[C@H](C(=O)N[C@@H](Cc3ccc(-c4c(OC)cccc4OC)cc3)C(=O)O)CC2)cc1` [Example 51, N-[Trans-4-(4-methoxyphenylhydrazinocarbonyl)cyclohexane-1-carbonyl]-4-(2,6-dimethoxyphenyl)-L-phenylalanine], for which the pIC50 was 6.00 to 6.70.
